Measured values taken from patent US20150231236A1, “METHODS FOR TREATING PATIENTS WITH HYPERCHOLESTEROLEMIA THAT IS NOT ADEQUATELY CONTROLLED BY MODERATE-DOSE STATIN THERAPY” (Regeneron Pharmaceuticals, Inc., priority 2014, published 2015).

Test system: patients with hypercholesterolemia at high CV risk not adequately controlled with rosuvastatin (10 mg or 20 mg)
Experiment: Example 3: randomized, double-blind trial, lipid efficacy of mAb316P add-on to rosuvastatin vs EZE add-on or rosuvastatin dose doubling
Assay type: in vivo, human
Details: for Proportion of Patients Reaching LDL-C goal (%): week 24, LDL-C <70 mg/dL very high risk or <100 mg/dL high risk
Method: The present study was a randomized, double-blind, active-comparator, parallel-group study in patients at high CV risk with non-FH or heFH who are not adequately controlled with rosuvastatin (10 mg or 20 mg) with or without other lipid-modifying therapy (LMT) (excluding EZE). The study design is illustrated in FIG. 2. Patients who entered the study were taking either rosuvastatin 10 mg or rosuvastatin 20 mg. The former patients were randomized to 1 of 3 treatment arms (arms 1 to 3); the latter patients were randomized to 1 of 3 treatment arms (arms 4 to 6). The treatment arms are as follows:
(B) a double-blind treatment period of 24 weeks. […] The patient/caregiver administered subsequent injections outside of the clinic according to the dosing schedule. […] The last dose of daily oral study drugs was administered at week 24.
The first injection of study drug was administered at the clinical site, as soon as possible after the patient was randomized into the study. The patient was monitored at the clinical site for at least 30 minutes following the first injection. The patient/caregiver administered subsequent injections outside of the clinic, according to the dosing schedule.
The primary efficacy endpoint was the percent change in calculated LDL-C from baseline to week 24, which is defined as: 100× (calculated LDL-C value at week 24−calculated LDL-C value at baseline)/calculated LDL-C value at baseline. The baseline calculated LDL-C value was the last LDL-C level obtained before the first double-blind study drug injection. The calculated LDL-C at week 24 was the LDL-C level obtained within the week 24 analysis window and during the main efficacy period. The main efficacy period is defined as the time from the first double-blind study drug injection up to 21 days after the last double-blind study drug injection or up to the upper limit of the week 24 analysis window, whichever comes first.
Total-C, HDL-C, TG, ApoB, ApoA-1, and Lp(a) were directly measured by a central laboratory. LDL-C was calculated using the Friedewald formula. […] Non-HDL-C was calculated by subtracting HDL-C from the total-C. Ratio ApoB/ApoA-1 was calculated.
For clarification, the ITT analysis is defined for patients in the ITT population and includes all endpoint assessments in an analysis window, regardless of study treatment dosing status (i.e. includes post-treatment assessments). The on-treatment analysis is defined for patients in the mITT population and includes all endpoint assessments from the first double-blind study drug (capsule or injection, whichever comes first) up to 21 days after the last double-blind study drug injection or 3 days after the last capsule intake, whichever comes first (i.e. includes assessments in the efficacy treatment period).

[1] = ITT Population, Comparison 1: mAb316P + rosuvastatin 10 mg arm vs. rosuvastatin 20 mg arm
[2] = ITT Population, Comparison 2: mAb316P + rosuvastatin 10 mg arm vs. EZE + rosuvastatin 10 mg arm
[3] = ITT Population, Comparison 3: mAb316P + rosuvastatin 20 mg arm vs. rosuvastatin 40 mg arm
[4] = ITT Population, Comparison 4: mAb316P + rosuvastatin 20 mg arm vs. EZE + rosuvastatin 20 mg arm
[5] = mITT Population, Comparison 1: mAb316P + rosuvastatin 10 mg arm vs. rosuvastatin 20 mg arm
[6] = mITT Population, Comparison 2: mAb316P + rosuvastatin 10 mg arm vs. EZE + rosuvastatin 10 mg arm
[7] = mITT Population, Comparison 3: mAb316P + rosuvastatin 20 mg arm vs. rosuvastatin 40 mg arm
[8] = mITT Population, Comparison 4: mAb316P + rosuvastatin 20 mg arm vs. EZE + rosuvastatin 20 mg arm

## mAb316P: human anti-PCSK9 antibody; heavy chain SEQ ID NO:5, light chain SEQ ID NO:9
Baseline Rosuvastatin 10 mg
  Proportion of Patients Reaching LDL-C goal (%): 84.9%
Baseline Rosuvastatin 20 mg
  Proportion of Patients Reaching LDL-C goal (%): 66.7%
[1]
  LS Mean Difference, percent change from baseline of Apo B to week 24: −29.2%
  LS Mean Difference, percent change from baseline of Apo-B to week 12: −28.1%
  LS Mean Difference, percent change from baseline of HDL-C at week 24: 7.4%
  LS Mean Difference, percent change from baseline of Lp(a) to week 24: −23.9%
  LS Mean Difference, percent change from baseline of Non-HDL-C to week 12: −29.5%
  LS Mean Difference, percent change from baseline of Total-C to week 12: −20.1%
  LS Mean Difference, percent change from baseline of Total-C to week 24: −20.6%
  LS Mean Difference, percent change from baseline of calculated LDL-C to week 12: −32.5%
  LS Mean Difference, percent change from baseline of calculated LDL-C to week 24: −34.2%
  LS Mean Difference, percent change from baseline of non-HDL-C to week 24: −31.4%
  Odds Ratio, proportion of patients reaching calculated LDL-C < 70 mg/dL (1.81 mmol/L) at Week 24: 18.6
  Odds Ratio, proportion of very high CV risk patients reaching calculated LDL-C < 70 mg/dL or high CV risk patients reaching calculated LDL-C < 100 mg/dL at Week 24: 10.2
[2]
  LS Mean Difference, percent change from baseline of Apo B to week 24: −26.8%
  LS Mean Difference, percent change from baseline of Apo-B to week 12: −24.0%
  LS Mean Difference, percent change from baseline of HDL-C at week 24: 5.1%
  LS Mean Difference, percent change from baseline of Lp(a) to week 24: −23.6%
  LS Mean Difference, percent change from baseline of Non-HDL-C to week 12: −24.9%
  LS Mean Difference, percent change from baseline of Total-C to week 12: −17.2%
  LS Mean Difference, percent change from baseline of Total-C to week 24: −20.3%
  LS Mean Difference, percent change from baseline of calculated LDL-C to week 12: −32.2%
  LS Mean Difference, percent change from baseline of calculated LDL-C to week 24: −36.1%
  LS Mean Difference, percent change from baseline of non-HDL-C to week 24: −29.3%
  Odds Ratio, proportion of patients reaching calculated LDL-C < 70 mg/dL (1.81 mmol/L) at Week 24: 11.6
  Odds Ratio, proportion of very high CV risk patients reaching calculated LDL-C < 70 mg/dL or high CV risk patients reaching calculated LDL-C < 100 mg/dL at Week 24: 7.8
[3]
  LS Mean Difference, percent change from baseline of Apo B to week 24: −18.5%
  LS Mean Difference, percent change from baseline of Apo-B to week 12: −15.3%
  LS Mean Difference, percent change from baseline of HDL-C at week 24: 5.7%
  LS Mean Difference, percent change from baseline of Lp(a) to week 24: −17.5%
  LS Mean Difference, percent change from baseline of Non-HDL-C to week 12: −11.8%
  LS Mean Difference, percent change from baseline of Total-C to week 12: −5.5%
  LS Mean Difference, percent change from baseline of Total-C to week 24: −12.1%
  LS Mean Difference, percent change from baseline of calculated LDL-C to week 12: −10.2%
  LS Mean Difference, percent change from baseline of calculated LDL-C to week 24: −20.3%
  LS Mean Difference, percent change from baseline of non-HDL-C to week 24: −20.1%
  Odds Ratio, proportion of patients reaching calculated LDL-C < 70 mg/dL (1.81 mmol/L) at Week 24: 6.1
  Odds Ratio, proportion of very high CV risk patients reaching calculated LDL-C < 70 mg/dL or high CV risk patients reaching calculated LDL-C < 100 mg/dL at Week 24: 4.7
[4]
  LS Mean Difference, percent change from baseline of Apo B to week 24: −17.1%
  LS Mean Difference, percent change from baseline of Apo-B to week 12: −14.7%
  LS Mean Difference, percent change from baseline of HDL-C at week 24: 9.0%
  LS Mean Difference, percent change from baseline of Lp(a) to week 24: −16.9%
  LS Mean Difference, percent change from baseline of Non-HDL-C to week 12: −11.0%
  LS Mean Difference, percent change from baseline of Total-C to week 12: −5.5%
  LS Mean Difference, percent change from baseline of Total-C to week 24: −8.2%
  LS Mean Difference, percent change from baseline of calculated LDL-C to week 12: −12.9%
  LS Mean Difference, percent change from baseline of calculated LDL-C to week 24: −25.3%
  LS Mean Difference, percent change from baseline of non-HDL-C to week 24: −18.4%
  Odds Ratio, proportion of patients reaching calculated LDL-C < 70 mg/dL (1.81 mmol/L) at Week 24: 2.5
  Odds Ratio, proportion of very high CV risk patients reaching calculated LDL-C < 70 mg/dL or high CV risk patients reaching calculated LDL-C < 100 mg/dL at Week 24: 2.3
Baseline rosuvastatin 10 mg regimen
  proportion of patients who reached LDL-C level of <70 mg/dL (1.81 mmol/L) at Week 24: 77.8%
Baseline rosuvastatin 20 mg regimen
  proportion of patients who reached LDL-C level of <70 mg/dL (1.81 mmol/L) at Week 24: 60.1%
[5]
  LS Mean Difference, percent change from baseline of Apo B to week 24: −30.7%
  LS Mean Difference, percent change from baseline of calculated LDL-C to week 12: −35.3%
  LS Mean Difference, percent change from baseline of calculated LDL-C to week 24: −35.2%
  LS Mean Difference, percent change from baseline of non-HDL-C to week 24: −32.8%
  Odds Ratio, proportion of patients reaching calculated LDL-C < 70 mg/dL (1.81 mmol/L) at Week 24: 20.3
  Odds Ratio, proportion of very high CV risk patients reaching calculated LDL-C < 70 mg/dL or high CV risk patients reaching calculated LDL-C < 100 mg/dL at Week 24: 12.4
[6]
  LS Mean Difference, percent change from baseline of Apo B to week 24: −28.3%
  LS Mean Difference, percent change from baseline of calculated LDL-C to week 12: −32.3%
  LS Mean Difference, percent change from baseline of calculated LDL-C to week 24: −33.2%
  LS Mean Difference, percent change from baseline of non-HDL-C to week 24: −28.2%
  Odds Ratio, proportion of patients reaching calculated LDL-C < 70 mg/dL (1.81 mmol/L) at Week 24: 12.7
  Odds Ratio, proportion of very high CV risk patients reaching calculated LDL-C < 70 mg/dL or high CV risk patients reaching calculated LDL-C < 100 mg/dL at Week 24: 8.9
[7]
  LS Mean Difference, percent change from baseline of Apo B to week 24: −17.7%
  LS Mean Difference, percent change from baseline of calculated LDL-C to week 12: −12.3%
  LS Mean Difference, percent change from baseline of calculated LDL-C to week 24: −24.5%
  LS Mean Difference, percent change from baseline of non-HDL-C to week 24: −20.7%
  Odds Ratio, proportion of patients reaching calculated LDL-C < 70 mg/dL (1.81 mmol/L) at Week 24: 9.0
  Odds Ratio, proportion of very high CV risk patients reaching calculated LDL-C < 70 mg/dL or high CV risk patients reaching calculated LDL-C < 100 mg/dL at Week 24: 5.9
[8]
  LS Mean Difference, percent change from baseline of Apo B to week 24: −17.8%
  LS Mean Difference, percent change from baseline of calculated LDL-C to week 12: −13.3%
  LS Mean Difference, percent change from baseline of calculated LDL-C to week 24: −24.9%
  LS Mean Difference, percent change from baseline of non-HDL-C to week 24: −17.4%
  Odds Ratio, proportion of patients reaching calculated LDL-C < 70 mg/dL (1.81 mmol/L) at Week 24: 3.4
  Odds Ratio, proportion of very high CV risk patients reaching calculated LDL-C < 70 mg/dL or high CV risk patients reaching calculated LDL-C < 100 mg/dL at Week 24: 2.7
